Consider 4 molecules from patent EP3046573B1, “AMYLIN ANALOGUES” (Zealand Pharma A/S, priority 2013, dated 2015).

pEC50: −log10 of the molar value. Where two headings read alike, the source gives them in different places. Numbered stars: 1 amine (or outer) side, 2 acyl side, 3 side chain; on linkers, the order of the positions; unused ones are H or OH. Bridge positions count the residues as written; N and C are the ends. Square brackets hold non-standard residues; d marks the D form. Peptide text beside a SMILES is read from it. * marks the point of attachment. C20 diacid = O=C(O)CCCCCCCCCCCCCCCCCCC(=O)*; γGlu = O=C(O)[C@H](CCC(=O)[*:2])N[*:1]; Stearoyl = CCCCCCCCCCCCCCCCCC(=O)*; Palmitoyl = CCCCCCCCCCCCCCCC(=O)*; NMeI = CC[C@H](C)[C@H](NC)C(=O)O; Sar = CNCC(=O)O

Data set [1] addresses T1, human calcitonin receptor (hCTR2) (Homo sapiens, UniProt P30988).
T1 construct: expressed in transfected cells
T1 sequence (P30988 25-474): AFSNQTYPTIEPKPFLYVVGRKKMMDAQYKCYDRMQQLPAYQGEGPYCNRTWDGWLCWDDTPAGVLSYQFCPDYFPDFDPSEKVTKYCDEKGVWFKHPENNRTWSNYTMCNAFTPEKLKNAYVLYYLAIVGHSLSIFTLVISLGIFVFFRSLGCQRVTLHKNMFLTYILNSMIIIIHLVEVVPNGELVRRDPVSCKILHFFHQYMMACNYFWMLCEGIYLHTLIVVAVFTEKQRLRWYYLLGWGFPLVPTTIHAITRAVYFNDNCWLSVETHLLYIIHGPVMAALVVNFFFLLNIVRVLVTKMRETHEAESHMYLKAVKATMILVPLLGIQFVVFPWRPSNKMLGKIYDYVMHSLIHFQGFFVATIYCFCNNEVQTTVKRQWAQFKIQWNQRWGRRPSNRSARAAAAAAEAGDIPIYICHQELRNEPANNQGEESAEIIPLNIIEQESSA
Kind of data set: hCTR2 assay: induction of cAMP (AlphaScreen cAMP Assay kit) in COS7 cells expressing hCTR2. The format is cell-based. Put shortly: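 Cells were seeded one day ahead, washed, then exposed to rising peptide concentrations for 15 min at 37° C in the presence of 100 µM IBMX. After lysis for 10 min at room temperature, cAMP was quantified by AlphaScreen and EC50 values derived by 4PL fitting.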
On the technique in general: Bead proximity is the source of the signal in Alpha formats.

A short description of data set [2]: Solubility assessment (turbidity absorbance at 325 nm). It counts as physicochemical. The settings on record: stock 2 mg/ml diluted 1:1, ambient temperature (typically 25°C), n=1; for Solubility, Acetate buffer pH 4: 100 mM acetate buffer pH 4.0; for Solubility, Acetate buffer pH 5: 100 mM acetate buffer pH 5.0; for Solubility, Histidine buffer pH 6: 100 mM histidine buffer pH 6.0; for Solubility, Histidine buffer pH 7: 100 mM histidine buffer pH 7.0; for Solubility, Phosphate buffer pH 6: 100 mM phosphate buffer pH 6.0; for Solubility, Phosphate buffer pH 7: 100 mM phosphate buffer pH 7.0; for Solubility, Phosphate buffer pH 7.5: 100 mM phosphate buffer pH7.5. The method, boiled down: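 Turbidity read as absorbance at 325 nm (also 280 nm), single samples at ambient temperature (typically 25°C); ≤ 0.02 units counts as ≥ 1 mg/ml soluble. Samples made by 1:1 dilution of a 2 mg/ml acidic stock into 100 mM acetate, histidine or phosphate buffers, pH 4.0–7.5.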

On to `CCCCCCCCCCCCCCCC(=O)N[C@@H](CCC(=O)N[C@@H](CCCNC(=N)N)C(=O)N[C@H]1CSSC[C@@H](C(=O)N[C@@H](C)C(=O)N[C@H](C(=O)N[C@@H](CCC(N)=O)C(=O)N[C@@H](CCCNC(=N)N)C(=O)N[C@@H](CC(C)C)C(=O)N[C@@H](C)C(=O)N[C@@H](CCC(=O)O)C(=O)N[C@@H](Cc2ccccc2)C(=O)N[C@@H](CC(C)C)C(=O)N[C@@H](Cc2c[nH]cn2)C(=O)N[C@@H](CCCNC(=N)N)C(=O)N[C@@H](CO)C(=O)N[C@@H](CO)C(=O)N[C@@H](CC(N)=O)C(=O)N[C@@H](CC(N)=O)C(=O)N[C@@H](Cc2ccccc2)C(=O)N(C)CC(=O)N[C@@H](C)C(=O)N(C)[C@H](C(=O)N[C@@H](CC(C)C)C(=O)N[C@@H](CO)C(=O)N[C@@H](CO)C(=O)N[C@H](C(=O)N[C@@H](CC(N)=O)C(=O)N[C@H](C(=O)NCC(=O)N[C@@H](CO)C(=O)N[C@@H](CC(N)=O)C(=O)N[C@H](C(=O)N2CCC[C@H]2C(N)=O)[C@@H](C)O)C(C)C)[C@@H](C)O)[C@@H](C)CC)[C@@H](C)O)NC(=O)[C@H]([C@@H](C)O)NC(=O)[C@H](C)NC(=O)[C@H]([C@@H](C)O)NC(=O)[C@H](CC(N)=O)NC1=O)C(=O)O` [Compound 92, [Hexadecanoyl]-isoGlu-RC()NTATC()ATQRLAEFLHRSSNNF-Gly(Me)-A-Ile(Me)-LSSTNVGSNTP-NH2] ({Palmitoyl-γGlu}-RCNTATCATQRLAEFLHRSSNNF[Sar]A[NMeI]LSSTNVGSNTP-NH2; disulfide 2-7), for which the pEC50 in data set [1] is 10.27. In addition, in data set [2], the “Solubility, Acetate buffer pH 4” value is “SS (SS indicates solubility ≥ 1mg/ml)”; the “Solubility, Acetate buffer pH 5” value is on record as “SS (SS indicates solubility ≥ 1mg/ml)”; the “Solubility, Histidine buffer pH 6” value was “SS (SS indicates solubility ≥ 1mg/ml)”; the “Solubility, Histidine buffer pH 7” value is given as “SS (SS indicates solubility ≥ 1mg/ml)”. Besides, in data set [2], the “Solubility, Phosphate buffer pH 6” value is recorded as “SS (SS indicates solubility ≥ 1mg/ml)”; the “Solubility, Phosphate buffer pH 7” value was “SS (SS indicates solubility ≥ 1mg/ml)”; the “Solubility, Phosphate buffer pH 7.5” value was “SS (SS indicates solubility ≥ 1mg/ml)”.

For the molecule `CCCCCCCCCCCCCCCCCC(=O)N[C@@H](CCC(=O)N[C@@H](CCCNC(=N)N)C(=O)N[C@H]1CSSC[C@@H](C(=O)N[C@@H](C)C(=O)N[C@H](C(=O)N[C@@H](CCC(N)=O)C(=O)N[C@@H](CCCNC(=N)N)C(=O)N[C@@H](CC(C)C)C(=O)N[C@@H](C)C(=O)N[C@@H](CCC(=O)O)C(=O)N[C@@H](Cc2ccccc2)C(=O)N[C@@H](CC(C)C)C(=O)N[C@@H](Cc2c[nH]cn2)C(=O)N[C@@H](CCCNC(=N)N)C(=O)N[C@@H](CO)C(=O)N[C@@H](CO)C(=O)N[C@@H](CC(N)=O)C(=O)N[C@@H](CC(N)=O)C(=O)N[C@@H](Cc2ccccc2)C(=O)N(C)CC(=O)N[C@@H](C)C(=O)N(C)[C@H](C(=O)N[C@@H](CC(C)C)C(=O)N[C@@H](CO)C(=O)N[C@@H](CO)C(=O)N[C@H](C(=O)N[C@@H](CC(N)=O)C(=O)N[C@H](C(=O)NCC(=O)N[C@@H](CO)C(=O)N[C@@H](CC(N)=O)C(=O)N[C@H](C(=O)N2CCC[C@H]2C(N)=O)[C@@H](C)O)C(C)C)[C@@H](C)O)[C@@H](C)CC)[C@@H](C)O)NC(=O)[C@H]([C@@H](C)O)NC(=O)[C@H](C)NC(=O)[C@H]([C@@H](C)O)NC(=O)[C@H](CC(N)=O)NC1=O)C(=O)O` [Compound 93, [Octadecanoyl]-isoGlu-RC()NTATC()ATQRLAEFLHRSSNNF-Gly(Me)-A-Ile(Me)-LSSTNVGSNTP-NH2] ({Stearoyl-γGlu}-RCNTATCATQRLAEFLHRSSNNF[Sar]A[NMeI]LSSTNVGSNTP-NH2; disulfide 2-7), the pEC50 in data set [1] was 10.19. Also, in data set [2], the “Solubility, Acetate buffer pH 4” value is recorded as “SS (SS indicates solubility ≥ 1mg/ml)”; the “Solubility, Acetate buffer pH 5” value is given as “SS (SS indicates solubility ≥ 1mg/ml)”; the “Solubility, Histidine buffer pH 6” value is recorded as “SS (SS indicates solubility ≥ 1mg/ml)”; the “Solubility, Histidine buffer pH 7” value is “SS (SS indicates solubility ≥ 1mg/ml)”. For the same molecule, in data set [2], the “Solubility, Phosphate buffer pH 6” value is listed as “SS (SS indicates solubility ≥ 1mg/ml)”; the “Solubility, Phosphate buffer pH 7” value was “SS (SS indicates solubility ≥ 1mg/ml)”; the “Solubility, Phosphate buffer pH 7.5” value was “SS (SS indicates solubility ≥ 1mg/ml)”.

Turning to `CC[C@H](C)[C@@H](C(=O)N[C@@H](CC(C)C)C(=O)N[C@@H](CO)C(=O)N[C@@H](CO)C(=O)N[C@H](C(=O)N[C@@H](CCC(=O)O)C(=O)N[C@H](C(=O)NCC(=O)N[C@@H](CO)C(=O)N[C@@H](CCC(=O)O)C(=O)N[C@H](C(=O)N1CCC[C@H]1C(N)=O)[C@@H](C)O)C(C)C)[C@@H](C)O)N(C)C(=O)CN(C)C(=O)[C@H](Cc1ccccc1)NC(=O)[C@H](CO)NC(=O)[C@H](CO)NC(=O)[C@H](CCCNC(=N)N)NC(=O)[C@H](Cc1c[nH]cn1)NC(=O)[C@H](CC(C)C)NC(=O)[C@H](Cc1ccccc1)NC(=O)[C@H](CCC(=O)O)NC(=O)[C@H](C)NC(=O)[C@H](CC(C)C)NC(=O)[C@H](CCCNC(=N)N)NC(=O)[C@H](CCC(N)=O)NC(=O)[C@@H](NC(=O)[C@H](C)NC(=O)[C@@H]1CSSC[C@H](NC(=O)[C@H](CCCNC(=N)N)NC(=O)CC[C@H](NC(=O)CCCCCCCCCCCCCCCCCCC(=O)O)C(=O)O)C(=O)N[C@@H](CC(N)=O)C(=O)N[C@@H]([C@@H](C)O)C(=O)N[C@@H](C)C(=O)N[C@@H]([C@@H](C)O)C(=O)N1)[C@@H](C)O` [Compound 95, [19CD]-isoGlu-RC()NTATC()ATQRLAEFLHRSSF-Gly(Me)-Ile(Me)-LSSTEVGSETP-NH2] ({C20 diacid-γGlu}-RCNTATCATQRLAEFLHRSSF[Sar][NMeI]LSSTEVGSETP-NH2; disulfide 2-7), in data set [1] (cAMP induction in COS7 cells expressing hCTR2, average of a minimum of 3 determinations, read-out: hCTR2 EC50), the negative-log EC50 (pEC50) is 10.09. Also, in data set [2], the “Solubility, Acetate buffer pH 4” value is listed as “SS (SS indicates solubility ≥ 1mg/ml)”; the “Solubility, Acetate buffer pH 5” value is on record as “SS (SS indicates solubility ≥ 1mg/ml)”; the “Solubility, Histidine buffer pH 6” value is listed as “SS (SS indicates solubility ≥ 1mg/ml)”; the “Solubility, Histidine buffer pH 7” value was “SS (SS indicates solubility ≥ 1mg/ml)”. Besides, in data set [2], the “Solubility, Phosphate buffer pH 6” value is “SS (SS indicates solubility ≥ 1mg/ml)”; the “Solubility, Phosphate buffer pH 7” value is reported as “SS (SS indicates solubility ≥ 1mg/ml)”; the “Solubility, Phosphate buffer pH 7.5” value is recorded as “SS (SS indicates solubility ≥ 1mg/ml)”.

Regarding `CC[C@H](C)[C@@H](C(=O)N[C@@H](CC(C)C)C(=O)N[C@@H](CO)C(=O)N[C@@H](CO)C(=O)N[C@H](C(=O)N[C@@H](CC(N)=O)C(=O)N[C@H](C(=O)NCC(=O)N[C@@H](CO)C(=O)N[C@@H](CC(N)=O)C(=O)N[C@H](C(=O)N[C@@H](Cc1ccc(O)cc1)C(N)=O)[C@@H](C)O)C(C)C)[C@@H](C)O)N(C)C(=O)[C@H](C)NC(=O)CN(C)C(=O)[C@H](Cc1ccccc1)NC(=O)[C@H](CC(N)=O)NC(=O)[C@H](CC(N)=O)NC(=O)[C@H](CO)NC(=O)[C@H](CO)NC(=O)[C@H](CCCNC(=N)N)NC(=O)[C@H](Cc1c[nH]cn1)NC(=O)[C@H](CC(C)C)NC(=O)[C@H](Cc1ccccc1)NC(=O)[C@H](CCC(=O)O)NC(=O)[C@H](C)NC(=O)[C@H](CC(C)C)NC(=O)[C@H](CCCNC(=N)N)NC(=O)[C@H](CCC(N)=O)NC(=O)[C@@H](NC(=O)[C@H](C)NC(=O)[C@@H]1CSSC[C@H](NC(=O)[C@H](CCCNC(=N)N)NC(=O)CC[C@H](NC(=O)CCCCCCCCCCCCCCCCCCC(=O)O)C(=O)O)C(=O)N[C@@H](CC(N)=O)C(=O)N[C@@H]([C@@H](C)O)C(=O)N[C@@H](C)C(=O)N[C@@H]([C@@H](C)O)C(=O)N1)[C@@H](C)O` [Compound 156, [19CD]-isoGlu-RC()NTATC()ATQRLAEFLHRSSNNF-Gly(Me)-A-Ile(Me)-LSSTNVGSNTY-NH2] ({C20 diacid-γGlu}-RCNTATCATQRLAEFLHRSSNNF[Sar]A[NMeI]LSSTNVGSNTY-NH2; disulfide 2-7), the negative logarithm of the EC50 (pEC50) in data set [1] was 9.27. Besides, in data set [2], the “Solubility, Acetate buffer pH 4” value is listed as “SS (SS indicates solubility ≥ 1mg/ml)”; the “Solubility, Acetate buffer pH 5” value is “SS (SS indicates solubility ≥ 1mg/ml)”; the “Solubility, Histidine buffer pH 6” value is “SS (SS indicates solubility ≥ 1mg/ml)”; the “Solubility, Histidine buffer pH 7” value is on record as “II (II indicates solubility ≤ 1 mg/ml)”. Further, in data set [2], the “Solubility, Phosphate buffer pH 6” value is listed as “SS (SS indicates solubility ≥ 1mg/ml)”; the “Solubility, Phosphate buffer pH 7” value was “II (II indicates solubility ≤ 1 mg/ml)”; the “Solubility, Phosphate buffer pH 7.5” value is listed as “II (II indicates solubility ≤ 1 mg/ml)”.

In general, pEC50 refers to the negative decadic logarithm of the EC50, by convention in mol/L.
